We go through 1 substance from patent US7772192B2, “Compositions and methods for treatment of disease with acetylated disaccharides” (The Regents of the University of California, priority 2003, dated 2010).

In assay [1] the test system is LS180 cells adhering to recombinant P-selectin. Nature of the assay: Cell adhesion to immobilized P-selectin. In kind it is cell-based, human. To be noted: LS180 cells grown 5 days with disaccharide. As to the method:
Cell adhesion to immobilized selectins. 96-well plates were coated overnight at 4° C. with recombinant E-selectin (4 μg/ml) or P-selectin (2 μg/ml) (R & D Systems) and blocked with 1% BSA/PBS. LS180 cells were grown for 5 days with various amounts of acetylated disaccharide, harvested, labeled with Calcein AM (5 μM, Molecular Probes) in DMEM/1% FBS, and allowed to settle at room temperature on selectin-coated wells (5×10^4 cells/well). Plates were then stirred at 75 rpm for 30 min (Orbit shaker, Lab-Line Instruments) followed by immersion upside-down in a vessel filled with Hank's buffered saline solution (HBSS, Sigma), which allowed non-adherent cells to fall under gravity. St John et al., J. Immunol Methods, 170: 159-166, 1994. The wells were then washed by aspiration using HBSS. LS180 cells were less adherent to P-selectin, so the immersion step was not necessary prior to washing. […] Fluorescence was measured using a 96-well fluorimeter (CytoFluor II), and the average of triplicate measurements was determined±standard error. Cell viability was judged to be >90% by Trypan blue exclusion at the end of each experiment.
Adhesion to selectins is altered in disaccharide-treated tumor cells. Treatment of LS180 cells with AcGnG-NM was not toxic to the cells up to 100 μM based on growth curves and exclusion of Trypan blue. […]

Assay [2] concerns LLC cells. The experiment in a line: Experimental metastasis of pretreated LLC cells. To be noted: cells treated 4 days, Es1(e) mice, 3 weeks. In kind it is in vivo, mice. As to the method: (A) LLC cells were treated in culture for 4 days with peracetylated GlcNAcβ3Gal-NM or vehicle (DMSO/propylene glycol, v/v 1:1). Single-cell suspensions (2×10^5) were injected in the tail-veins of Es1(e) mice. After 3 weeks, the mice were sacrificed and the number of tumors present on the surface of the lungs was determined by visual inspection.
LLC cells were treated in culture for 5 days with 4-deoxy AcGnG-NM, AcGnG-NM or vehicle (DMSO:propylene glycol) and then a single-cell suspension (2×10^5 cells) was injected in the tail vein of mice. After 3 weeks, the number of tumors present on the surface of the lungs was determined.

Assay [3] relates to LS180 colon carcinoma cells. The experiment in a line: Adhesion of activated human platelets to tumor cells (LS180). In kind it is cell-based. To be noted: 50 μM, 3 days, thrombin-activated human platelets. The protocol: Adhesion of activated human platelets to tumor cells. Tumor cells were seeded into 6-well plates (5×10^4/well), and allowed to grow into colonies in the presence or absence of 50 μM AcGnG-NM. After 3 days, platelets were isolated from 15 ml of normal human blood collected into 20% (v/v) Acid-Citrate-Dextrose (ACD) anticoagulant. A platelet-rich plasma was prepared by centrifugation and repeated washing using PSG buffer (5 mM HEPES, pH 6.8, 145 mM NaCl, 4 mM KCl, 0.5 mM sodium phosphate, 5.5 mM glucose, 0.5% BSA, and 25 nM prostaglandin E1 [Sigma]). The platelets were then labeled with Calcein AM (5 μM), and counted with a hemocytometer. Wells containing tumor cells were washed with HBSS, and 3×10^6 platelets were added in 1 ml of HBSS followed by activation with human thrombin (0.8 IU/well; Sigma). The plates were rocked for 10 min, and the wells were washed twice with HBSS, fixed with 5% formalin in HBSS, and analyzed by fluorescence microscopy. […]
Platelets bound to tumor cells were visualized by fluorescence microscopy (Nikon Diaphot) equipped with a digital camera (Nikon) linked to an Apple Macintosh computer with Adobe Photoshop software. The fluorescence image showing the platelets was superimposed on a phase-contrast picture of the cells and the number of attached platelets was quantified. […]

Consider “GlcNAcβ1,3Galβ-O-naphthalenemethanol [AcGnG-NM]”, for which, in assay [1], the “adhesion to recombinant P-selectin” value is on record as “reduced the ability of LS180 cells to adhere”. Further, the “tumors on the surface of the lungs” value in assay [2] was “significantly fewer tumor foci”. In addition, the “reduction of platelet adhesion” value in assay [3] turned out to be 60%.
